Reference: patent US20040259244A1, “Methods, compositions, and growth and differentiation factors for insulin-producing cells” (priority 2002, published 2004)
Square brackets hold non-standard residues; d marks the D form. Ends that are not written are not given here. sY = N[C@@H](Cc1ccc(OS(=O)(=O)O)cc1)C(=O)O

test system: conversion of stem cells into insulin producing cells; format: cell-based; settings: not given

Compound | effect on the conversion of stem cells into insulin producing cells
Cholera Toxin B Subunit | potential positive effect

same assay, conditions: statistical analysis of insulin content of supernatants, 3 donors, combinatorial array in alginate

Compound | effect on the conversion of stem cells into insulin producing cells
Cc1c(C)c2c(c(C)c1O)CCC(C)(C(=O)O)O2 (stereo not drawn) [Trolox] | potential negative effect
FGF-2: fibroblast growth factor 2 (FGF-basic) | potential negative effect
NCCCCN [Putrescine] | potential negative effect
Transferrin: a beta globulin in blood plasma capable of combining with ferric ions | potential positive effect
IGF-1: Insulin-like growth factor-I | potential positive effect
TGF beta 1: Transforming growth factor beta 1 | potential negative effect
CN(C)C=O [DMF, n-n-dimethylformamide] | potential positive effect
Caerulein | potential positive effect
HGF: hepatocyte growth factor | potential negative effect
C[S+](C)[O-] [DMSO, dimethyl sulfoxide] | potential positive effect
TGF alpha: Transforming growth factor alpha | potential negative effect
Exendin 4: a long acting analog of GLP-1 | potential positive effect
Endothelin 1: polypeptide consisting of 21 amino acid residues (CSCSSLMDKECVYFCHLDIIW; ends and bridges not checked; cysteine pairing not given here; UniProt P05305 53-73, looked up) | potential negative effect
GH: growth hormone | potential negative effect
CCCC(=O)[O-].[Na+] [n Butyric Acid] | potential negative effect
IGF-2: Insulin-like growth factor 2 | potential positive effect
CCCCCC(=O)c1c(O)c(Cl)c(OC)c(Cl)c1O [DIF-1] | potential negative effect
Laminin | potential positive effect
GRP: Gastrin Releasing Peptide (VPLPAGGGTVLTKMYPRGNHWAVGHLM; ends and bridges not checked; UniProt P07492 24-50, looked up) | potential positive effect

Compound | effect on the conversion of stem cells into insulin producing cells
vEGF | potential positive effect
CNP: A 22-amino acid peptide that is a member of the natriuretic peptide family (GLSKGCFGLKLDRIGSMSGLGC; ends and bridges not checked; cysteine pairing not given here; UniProt P23582 105-126, looked up) | potential positive effect
VIP: Vasoactive Intestinal Peptide (HSDAVFTDNYTRLRKQMAVKKYLNSILN; ends and bridges not checked; UniProt P01282 125-152, looked up) | potential positive effect
CCK8 amide: Cholecystokinin (CCK8-amide) (DYMGWMDF-NH2; ends and bridges not checked; UniProt P06307 96-103, looked up) | potential negative effect
NC(=O)c1cccnc1 [Nictotinamide, Nicotinamide] | potential positive effect
EGF: epidermal growth factor (NSDSECPLSHDGYCLHDGVCMYIEALDKYACNCVVGYIGERCQYRDLKWWELR; UniProt P01133 971-1023, looked up) | potential positive effect
FGF-1: FGF acidic | potential positive effect
CC[C@H](C)[C@@H]1NC(=O)[C@H](CCCNC(=N)N)NC(=O)[C@H](CC(=O)O)NC(=O)[C@H](CCSC)NC(=O)[C@H](CCCNC(=N)N)NC(=O)CNC(=O)CNC(=O)[C@H](Cc2ccccc2)NC(=O)[C@@H](NC(=O)[C@H](CO)NC(=O)[C@H](CO)NC(=O)[C@H](CCCNC(=N)N)NC(=O)[C@H](CCCNC(=N)N)NC(=O)[C@H](CC(C)C)NC(=O)[C@@H](N)CO)CSSC[C@@H](C(=O)N[C@@H](CC(N)=O)C(=O)N[C@@H](CO)C(=O)N[C@@H](Cc2ccccc2)C(=O)N[C@@H](CCCNC(=N)N)C(=O)N[C@@H](Cc2ccc(O)cc2)C(=O)O)NC(=O)CNC(=O)[C@H](CC(C)C)NC(=O)CNC(=O)[C@H](CO)NC(=O)[C@H](CCC(N)=O)NC(=O)[C@H](C)NC(=O)CNC1=O [ANP] | potential negative effect
C[C@]12C[C@H](O)[C@H]3[C@@H](CCC4=CC(=O)CC[C@@]43C)[C@@H]1CC[C@@H]2C(=O)CO [Corticosterone] | potential positive effect
NGF beta: Nerve growth factor | potential positive effect
Substance P: neuropeptide, full length (RPKPQQFFGLM; ends and bridges not checked; UniProt P20366 58-68, looked up) | potential positive effect
Met-Enkephalin | potential positive effect
Leu-Enkephalin: Natural opiate pentapeptide (YGGFL) (Leu-enkephalin; UniProt P01210 230-234, looked up) | potential positive effect
LIF: leukemia inhibitory factor, human | potential negative effect
Insulin: Insulin as medium supplement | potential positive effect
CCK8 sulfated: Cholecystokinin octapeptide, sulfated (D[sY]MGWMDF-NH2; ends and bridges not checked; UniProt P06307 96-103, looked up) | potential positive effect
N[C@@H](Cc1cc(I)c(Oc2ccc(O)c(I)c2)c(I)c1)C(=O)O [T3, Triiodothyronine] | potential negative effect
GLP-1: Glucagon like-peptide 1, (7-36) amide, human (HAEGTFTSDVSSYLEGQAAKEFIAWLVKGR-NH2; UniProt P01275 98-127, looked up) | potential negative effect
CC(=O)[C@H]1CC[C@H]2[C@@H]3CCC4=CC(=O)CC[C@]4(C)[C@H]3CC[C@]12C [Progesterone] | potential negative effect
